# Data: patent US10899707B2, “Methods for forming peroxyformic acid and uses thereof” (ECOLAB USA INC., priority 2014, dated 2021)
# “And” between values parts separate entries of the source, which are not always exact repeats. Identical values can stand only once. Like-named read-outs stand apart in the source and are kept apart here.
# Columns and labels:
# [1] = tested on: Various pathogens; type: cell-based; conditions: for Result (Passing Requirement 5 log reduction): EN 13727
# [2] = tested on: acid producing bacteria (APBs); assay: Biocidal performance on treated produced water, bug bottles serial dilution; type: cell-based; conditions: PFA treatment of produced water
# Method: Treatment of produced water with performic acid was evaluated using performic acid compositions containing a corrosion inhibitor. As shown in FIG. 28 (grey scale) the lighter color […] in the water, whereas the darker shading indicates no growth. Untreated has E5 bacteria/mL; 0.5 ppm PFA treated has E3 bacteria/mL. The bacterial bug bottles are specific in supporting growth of acid producing bacteria (APBs). Growth of APB is indicated by a color change from dark to light color (pink to yellow). 1 mL of initial inoculum was diluted 10 times in subsequent bottles. Therefore each bottle indicates a El bacteria/mL. Based on the results observed by growth/no growth of bacteria it can be concluded that PFA treatment results in at least a reduction of 2 log (equivalent of E2 bacteria/mL) bacteria.
# [3] = Performance of corrosion inhibitor in sea water and produced water systems (% protection); conditions: 200 ppm active performic acid, 50 ppm corrosion inhibitor (PFA: no inhibitor)
# Method: 200 ppm active of performic acid was added. 50 ppm of corrosion inhibitor was added for corrosion protection. % protection was plotted by comparison of the corrosion rate in the presence of corrosion inhibitor to the corrosion rate with no corrosion inhibitor addition (PFA or PFA-PW) as shown in Table 30.
# [4] = tested on: microorganisms in produced water; assay: Microbial efficacy by ATP concentration (AccuCount) in produced water; type: cell-based; conditions: PFA 5 ppm active, compounds 50 ppm product
# Method: Microbial efficacy of PFA alone (5 ppm active) or PFA (5 ppm active) in conjunction with the compounds (50 ppm product) listed in the Table 20 below and in FIG. 13 were tested by measuring the ATP concentration in the untreated and treated produced water samples (using AccuCount technology). Reductions in bacterial numbers were tabulated as % kill for each experiment. The results are represented in FIG. 13 and in Table 20.
# [5] = tested on: L. monocytogenes (ATCC 19114, 19116 and 4594); assay: Low temperature disinfectant efficacy, log reduction; type: cell-based; conditions: 4° C.; 1 minute contact exposure; FIG. 32
# Method: Micro efficacy of PFA according to the present invention was evaluated under low temperature, low oxygen conditions employing the formulation of Table 41.
# The log reduction of L. monocytogenes (ATCC 19114, 19116 and 4594) were evaluated at low temperature (4° C.) comparing peroxvacetic acid to the peroxyformic acid generated according to the formulation shown in Table 41. The results are shown in FIG. 32 comparing disinfectant efficacy after a 1 minute contact exposure to the disinfectants.
# As a result, the performic acid generated has a great fit for application in brewery plants. The exceptional antimicrobial efficacy of performic acid at low temperature meets the requirement of cold temperature environment of brewery operations, while common biocides including peroxycarboxylic acids such as peracetic acids will suffer the efficacy lose under low temperatures. In addition, formic acid that always coexists with performic acid is a very efficient acidulant, which will help prevent/dissolve beer stone, thus eliminate the additional acid wash. As a further benefit the performic acid composition has very high performic acid to H2O2 ratio, which practically eliminates the O2 that could potentially introduced to the liquid being processed (i.e. beer) and interfere with the organoleptic effects and negative taste effects.
# [6] = tested on: microbes in water sample (80% tap water 20% produced water); assay: Kill performance (log reduction) in water sample, 5 min exposure; type: cell-based; conditions: exposure time 5 min
# Source text: Synergy examples range from pH 0 to 12 at varied concentrations. Synergistic activity is defined as a technical effect that exceeds the addition of the cumulative performance of the materials in formulation.
# As referred to in Table 8 the following commercially-available test substances were employed: POAA (15% POAA, 10% H2O2), PAA 1 (21% peracetic, 3.5% H2O2), POOA (0.5% POOA, 6.8% H2O2).
# [7] = tested on: Staphylococcus; assay: Bactericidal activity of PFA versus POAA; type: cell-based; conditions: S. aureus ATCC 6538, 5 minutes, dirty conditions, 20° C.
# Source text: (§1) Staphylococcus, Enterococcus and Pseudomonas pathogens were used to evaluate the micro efficacy of PFA in comparison to POAA.
# [8] = tested on: Pseudomonas; assay: Bactericidal activity of PFA versus POAA; type: cell-based; conditions: P. aeruginosa ATCC 15442, 5 minutes, dirty conditions, 20° C.
# Source text: as §1
# [9] = tested on: Enterococcus; assay: Bactericidal activity of PFA versus POAA; type: cell-based; conditions: E. hirae ATCC 10541, 5 minutes, dirty conditions, 20° C.
# Source text: as §1
# [10] = tested on: Nalidixic acid resistant E. coli O157:H7; assay: Reduction of E. coli on raw beef brisket, dip treatment; type: cell-based; conditions: for CFU/cm2 / CFU/ml / Log CFU/cm2: replicates
# Source text: Nalidixic acid resistant E. coli O157:H7 was used to evaluate the efficacy in treatment with performic acid composition on raw beef brisket according to the conditions shown in Table 32.
# [11] = 180 ppm PFA, pH 8.76, 10 minutes, raw beef brisket
# [12] = 220 ppm POAA, pH 8.86, 10 minutes, raw beef brisket
smiles,measurement,setting,value
"O=COO [PFA, peroxyformic acid]",Result (Passing Requirement 4 log reduction),"[1]; EN 13624, Aspergillus brasiliensis ATCC 1604, 450 ppm PFA pH 6-7",PASS
same,Result (Passing Requirement 4 log reduction),"[1]; EN 13624, Canidia albicans ATCC 10231, 450 ppm PFA pH 6-7",PASS
same,Result (Passing Requirement 3 log reduction),"[1]; EN 13704, Bacillus subtilis ATCC 6633, 450 ppm PFA pH 6-7",PASS
same,Result (Passing Requirement 5 log reduction),"[1]; Enterococcus hirae ATCC 10541, 450 ppm PFA pH 6-7",PASS
same,Result (Passing Requirement 5 log reduction),"[1]; P. aeruginosa ATCC 15442, 450 ppm PFA pH 6-7",PASS
same,Result (Passing Requirement 5 log reduction),"[1]; Staph. Aureus ATCC 6538, 450 ppm PFA pH 6-7",PASS
same,Result (Passing Requirement 4 log reduction),[1]; pH 6,PASS
same,reduction of bacteria,[2],≥ 2 log
same,"% Protection, 3 hrs after dosing",[3]; produced water (PW),−237.2%
same,"% Protection, 8 hrs after dosing",[3]; produced water (PW),−228.1%
same,"% Protection, Last hour of testing",[3]; produced water (PW),−261.2%
same,"% Protection, 3 hrs after dosing",[3]; sea water,−10666.2%
same,"% Protection, 8 hrs after dosing",[3]; sea water,−13447.5%
same,"% Protection, Last hour of testing",[3]; sea water,−14481.9%
same,% Kill,[4],87.9%
same,disinfectant efficacy at the lower temperature (in words),[5],does not decrease
same,Log reduction,[6]; 2 ppm PFA,3.01
same,Log reduction,[6]; 8.5 ppm PFA,5.69
same,Log reduction,[6]; 10 ppm PFA,5.28
same,Average CFU/mL,"[7]; 20 ppm PFA × 1.25, pH 6.61",<140 CFU/mL
same,Log10 Growth,"[7]; 20 ppm PFA × 1.25, pH 6.61",<2.15
same,Average CFU/mL,"[7]; 30 ppm PFA × 1.25, pH 6.74",<140 CFU/mL
same,Log10 Growth,"[7]; 30 ppm PFA × 1.25, pH 6.74",<2.15
same,Average CFU/mL,"[7]; 50 ppm PFA × 1.25, pH 6.60",<140 CFU/mL
same,Log10 Growth,"[7]; 50 ppm PFA × 1.25, pH 6.60",<2.15
same,Average CFU/mL,"[8]; 20 ppm PFA × 1.25, pH 6.61",<140 CFU/mL
same,Log10 Growth,"[8]; 20 ppm PFA × 1.25, pH 6.61",<2.15
same,Average CFU/mL,"[8]; 30 ppm PFA × 1.25, pH 6.74",<140 CFU/mL
same,Log10 Growth,"[8]; 30 ppm PFA × 1.25, pH 6.74",<2.15
same,Average CFU/mL,"[8]; 50 ppm PFA × 1.25, pH 6.60",<140 CFU/mL
same,Log10 Growth,"[8]; 50 ppm PFA × 1.25, pH 6.60",<2.15
same,Average CFU/mL,"[9]; 20 ppm PFA × 1.25, pH 6.61",6.30E+03 CFU/mL
same,Log10 Growth,"[9]; 20 ppm PFA × 1.25, pH 6.61",3.80
same,Average CFU/mL,"[9]; 30 ppm PFA × 1.25, pH 6.74",2.15E+02 CFU/mL
same,Log10 Growth,"[9]; 30 ppm PFA × 1.25, pH 6.74",2.33
same,Average CFU/mL,"[9]; 50 ppm PFA × 1.25, pH 6.60",<140 CFU/mL
same,Log10 Growth,"[9]; 50 ppm PFA × 1.25, pH 6.60",<2.15
same,Average Log CFU/cm2,[10]; [11],3.22 Log CFU/cm2
same,Log reduction,[10]; [11],0.83
same,CFU/cm2,[10]; [11],1.84E+03 CFU/cm2 and 1.42E+03 CFU/cm2 and 1.72E+03 CFU/cm2
same,CFU/ml,[10]; [11],9.20E+02 CFU/ml and 7.10E+02 CFU/ml and 8.60E+02 CFU/ml
same,Log CFU/cm2,[10]; [11],3.26 Log CFU/cm2 and 3.15 Log CFU/cm2 and 3.24 Log CFU/cm2
"CC(=O)OO [POAA, peroxyacetic acid, reference compound]",disinfectant efficacy at the lower temperature (in words),[5],significantly decreases
same,Average CFU/mL,"[7]; 24.8 ppm POAA × 1.25, pH 6.73",1.77E+05 CFU/mL
same,Log10 Growth,"[7]; 24.8 ppm POAA × 1.25, pH 6.73",5.25
same,Average CFU/mL,"[7]; 37.6 ppm POAA × 1.25, pH 6.90",<140 CFU/mL
same,Log10 Growth,"[7]; 37.6 ppm POAA × 1.25, pH 6.90",<2.15
same,Average CFU/mL,"[7]; 62.4 ppm POAA × 1.25, pH 6.98",<140 CFU/mL
same,Log10 Growth,"[7]; 62.4 ppm POAA × 1.25, pH 6.98",<2.15
same,Average CFU/mL,"[8]; 24.8 ppm POAA × 1.25, pH 6.73",<140 CFU/mL
same,Log10 Growth,"[8]; 24.8 ppm POAA × 1.25, pH 6.73",<2.15
same,Average CFU/mL,"[8]; 37.6 ppm POAA × 1.25, pH 6.90",<140 CFU/mL
same,Log10 Growth,"[8]; 37.6 ppm POAA × 1.25, pH 6.90",<2.15
same,Average CFU/mL,"[8]; 62.4 ppm POAA × 1.25, pH 6.98",<140 CFU/mL
same,Log10 Growth,"[8]; 62.4 ppm POAA × 1.25, pH 6.98",<2.15
same,Average CFU/mL,"[9]; 24.8 ppm POAA × 1.25, pH 6.73",>3.30E+05 CFU/mL
same,Log10 Growth,"[9]; 24.8 ppm POAA × 1.25, pH 6.73",>5.52
same,Average CFU/mL,"[9]; 37.6 ppm POAA × 1.25, pH 6.90",9.25E+03 CFU/mL
same,Log10 Growth,"[9]; 37.6 ppm POAA × 1.25, pH 6.90",3.97
same,Average CFU/mL,"[9]; 62.4 ppm POAA × 1.25, pH 6.98",<140 CFU/mL
same,Log10 Growth,"[9]; 62.4 ppm POAA × 1.25, pH 6.98",<2.15
same,Average Log CFU/cm2,[10]; [12],2.98 Log CFU/cm2
same,Log reduction,[10]; [12],1.06
same,CFU/cm2,[10]; [12],1.20E+03 CFU/cm2 and 9.00E+02 CFU/cm2 and 8.00E+02 CFU/cm2
same,CFU/ml,[10]; [12],6.00E+02 CFU/ml and 4.50E+02 CFU/ml and 4.00E+02 CFU/ml
same,Log CFU/cm2,[10]; [12],3.08 Log CFU/cm2 and 2.95 Log CFU/cm2 and 2.90 Log CFU/cm2
same,Log reduction,"[10]; 220 ppm POAA, pH 8.86, dip for 10 minutes, ambient",1.06
